Reference: patent US7167801B2, “Method of identifying potential inhibitors of human papillomavirus protein E2 using x-ray atomic coordinates” (Boehringer Ingelheim (Canada) Ltd., priority 2001, dated 2007)

Columns and labels:
[1] = biological target: HPV-11 E2 (E2-dependent binding of E1 to the HPV-11 origin of replication) (Human papillomavirus 11, UniProt P04015); assay: E2-dependent E1 origin-binding assay; format: biochemical; details: assay of Example 6; read-out: IC50 (inhibitory activity)
Source text: E2-Dependent E1 Origin-Binding Assay
This assay was modeled on a similar assay for SV40 T Antigen described by McKay (J. Mol. Biol., 1981,145:471). A 400 bp radiolabeled DNA probe, containing the HPV-11 origin of replication (Chiang et al., 1992, Proc. Natl. Acad. Sci. USA 89:5799) was produced by PCR, using plasmid pBluescript™ SK encoding the origin (nucleotides 7886-61 of the HPV-11 genome in unique BAMH1 site) as template and primers flanking the origin. Radiolabel was incorporated as [^33P]dCTP. Binding assay buffer consisted of: 20 mM Tris pH 7.6, 100 mM NaCl, 1 mM DTT, 1 mM EDTA.
Other reagents used were protein A-SPA beads (type II, Amersham) and K72 rabbit polyclonal antiserum, raised against a peptide corresponding to the C-terminal 14 amino acids of HPV-11 E1. Following the protocol from Amersham, one bottle of beads was mixed with 25 mL of binding assay buffer. For the assay, a saturating amount of K72 antiserum was added to the beads and the mixture was incubated for 1 h, washed with one volume of binding assay buffer, and then resuspended in the same volume of fresh binding assay buffer. […] After an additional hour of incubation at room temperature, the reactions were centrifuged briefly to pellet the beads and the extent of complex formation was determined by scintillation counting on a Packard TopCount™. […]

[2] = biological target: T1, SV40 T Antigen (TAg)-origin complex (Simian virus 40, UniProt P03070); assay: SV40 T Antigen-DNA binding assay (counterscreen); format: biochemical; details: assay of Example 7, counterscreen
T1 construct: The Large T Antigen: Purchased from Chimerx, at 2.0 mg/mL; purchased Chimerx
Source text: SV40 T Antigen-DNA Binding Assay
This assay measures the formation of an SV40 T Antigen (TAg)-origin complex. The assay was developed by R. D. G. McKay (J. Mol. Biol. (1981) 145, 471–488). In principle, it is very similar to the E2-dependent E1-DNA binding assay (Example 6), with TAg replacing E1 and E2, and a radiolabeled SV40 ori probe replacing the HPV ori probe. The assay is used as a counterscreen for the assay of Example 6, since TAg shares functional homology to E1 and E2, but has very low sequence similarity.
The radiolabeled ori-containing DNA probe was made by PCR using pCH110 plasmid (Pharmacia) as a template. This template encodes the SV40 minimal origin of replication at nucleotides 7098-7023. Primers were “sv40-6958sens”=5′-GCCCCTAACTCCGCCCATCCCGC (SEQ ID NO. 7), and “sv40-206anti”=5′-ACCAGACCGCCACGGCTTACGGC (SEQ ID NO. 8). The PCR product was approximately 370 base pairs long and was radiolabeled using 50 μCi/100 μL PCR reaction of dCTP (α-^33P). […]
The protein-DNA complexes were immunocaptured using an α-TAg monoclonal antibody (PAb 101, subtype IgG2a, hybridoma obtained from ATCC and antibody purified in-house) bound to protein A-SPA beads. […] The plates were spun briefly and the precipitated radiolabeled DNA fragments were counted on a TopCount® counter.

T1 sequence (P03070 whole entry, one chain of several): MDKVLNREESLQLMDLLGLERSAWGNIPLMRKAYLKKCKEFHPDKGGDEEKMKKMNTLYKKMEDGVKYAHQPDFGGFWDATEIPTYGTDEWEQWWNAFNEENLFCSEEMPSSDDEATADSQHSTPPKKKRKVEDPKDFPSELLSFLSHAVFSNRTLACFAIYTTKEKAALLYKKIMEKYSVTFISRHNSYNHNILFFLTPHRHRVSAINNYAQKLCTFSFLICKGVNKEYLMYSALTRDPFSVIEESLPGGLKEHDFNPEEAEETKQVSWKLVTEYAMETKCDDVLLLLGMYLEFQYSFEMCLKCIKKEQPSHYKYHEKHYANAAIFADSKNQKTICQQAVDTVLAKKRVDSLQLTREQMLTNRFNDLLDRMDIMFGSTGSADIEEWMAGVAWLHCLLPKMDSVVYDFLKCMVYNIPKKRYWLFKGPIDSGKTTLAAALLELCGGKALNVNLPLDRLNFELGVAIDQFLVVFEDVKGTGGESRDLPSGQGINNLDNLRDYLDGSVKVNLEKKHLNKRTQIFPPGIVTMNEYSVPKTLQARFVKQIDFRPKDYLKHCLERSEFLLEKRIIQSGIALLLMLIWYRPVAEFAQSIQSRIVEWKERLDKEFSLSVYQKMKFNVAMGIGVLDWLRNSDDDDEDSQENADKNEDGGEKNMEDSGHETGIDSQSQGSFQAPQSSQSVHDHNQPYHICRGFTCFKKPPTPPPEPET
Chain of HPV-11 E2 (E2-dependent binding of E1 to the HPV-11 origin of replication) (P04015 whole entry): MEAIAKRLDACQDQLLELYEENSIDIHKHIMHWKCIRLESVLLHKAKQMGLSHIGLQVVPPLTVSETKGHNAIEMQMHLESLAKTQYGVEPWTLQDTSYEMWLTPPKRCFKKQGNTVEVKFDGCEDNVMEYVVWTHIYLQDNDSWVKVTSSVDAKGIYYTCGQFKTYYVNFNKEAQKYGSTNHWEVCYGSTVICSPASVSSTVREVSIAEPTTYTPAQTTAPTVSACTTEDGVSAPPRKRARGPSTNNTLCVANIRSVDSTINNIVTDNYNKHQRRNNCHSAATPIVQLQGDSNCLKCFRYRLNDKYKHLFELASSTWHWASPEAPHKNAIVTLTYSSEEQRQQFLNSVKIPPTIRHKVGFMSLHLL

SMILES: Cc1ccc2c(c1)C(=O)[C@]1(O[C@@H](c3ccc(Cl)c(Cl)c3)[C@@H](C(=O)Nc3ccc(-c4csnn4)cc3)[C@H]1C(=O)[O-])C2=O.[Na+] (racemic) [Compound L]
- IC50 [1]: 0.18 µM
- Selectivity: activity in the SV40 large T antigen assay [2]: lack of activity (or lower potency)
